The values below come from BindingDB's records for doi:10.1080/14756360701546413 (Dumlupinar University, 2008).

This experiment addresses Glutathione-disulfide reductase (Escherichia coli O157:H7, UniProt A0A0H3JIZ9). As to the kind of experiment: Enzyme Assay. As to the method: The enzyme activities in the absence of drugs or chemicals were taken as 100%. For each drug or chemical, an activity%-(drug) graph was drawn and drug concentrations producing 50% inhibition were calculated for the inhibitors.

Chain of Glutathione-disulfide reductase (A0A0H3JIZ9 whole entry): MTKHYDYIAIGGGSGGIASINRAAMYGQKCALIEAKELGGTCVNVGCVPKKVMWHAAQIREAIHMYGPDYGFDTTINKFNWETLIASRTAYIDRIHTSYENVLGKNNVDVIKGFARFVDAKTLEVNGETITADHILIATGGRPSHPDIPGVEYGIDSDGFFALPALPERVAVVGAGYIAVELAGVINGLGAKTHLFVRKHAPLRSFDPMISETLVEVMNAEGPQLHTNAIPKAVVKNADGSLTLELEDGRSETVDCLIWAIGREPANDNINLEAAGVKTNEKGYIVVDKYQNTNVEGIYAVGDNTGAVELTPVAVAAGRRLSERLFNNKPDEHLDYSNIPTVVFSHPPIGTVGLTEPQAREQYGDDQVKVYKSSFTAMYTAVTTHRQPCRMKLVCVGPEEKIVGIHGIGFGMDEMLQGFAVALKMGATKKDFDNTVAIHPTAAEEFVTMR

As for `CC(CCC(=O)Nc1nnc(S(N)(=O)=O)s1)C1CCC2C3CCC4CC(O)CCC4(C)C3CCC12C` (centres undefined) [Sulfonamide derivative, 1], half-maximal inhibition (IC50) required 47.1 µM and the affinity corresponds to a Ki of 72.3 µM.
Take `CC(CCC(=O)Nc1nnc(S(N)(=O)=O)s1)C1CCC2C3C(O)CC4CC(O)CCC4(C)C3CCC12C` (centres undefined) [Sulfonamide derivative, 2]: the IC50 worked out at 4.5 µM and the affinity, expressed as Ki, was 6.1 µM.

The IC50 is the midpoint of a concentration-inhibition curve. Low values mean inhibition by little substance, high ones a need for much substance. By Ki is commonly meant the dissociation constant of the complex between target and ligand, obtained from inhibition or displacement. High values mean lower affinity, low ones higher affinity.
